This is an account of results in PubChem BioAssay (NCI).

“And” between values parts separate entries of the source, which are not always exact repeats. Equal values may be shown once.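 The compound was tested at five concentrations on cells cultured in 96-well plates, with a 48-hour exposure period. Here, GI50 denotes the concentration required for 50% inhibition of growth. TGI is the concentration that stops growth completely.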 Bounds are passed on as bounds.

What all share (test): NCI anticancer screen, dose series, 48 h
The test system of experiment [1] is A498 renal.
Experiment [2] deals with EKVX NSCLC.
The test system of experiment [3] is HCT-15 colon.
Experiment [4] relates to HOP-62 NSCLC.
For experiment [5], the system named is IGROV1 ovarian.
Experiment [6] relates to OVCAR-8 ovarian.
The subject of experiment [7] is UACC-62 melanoma.
In experiment [8] the test system is UO-31 renal.
Experiment [9] deals with SNB-19 CNS.

As to `CCOC(=O)/C=C1\Nc2ccccc2C(c2ccccc2)=NC1OC(C)=O` (stereo not drawn), the TGI in [1], in [2], in experiment [3], in experiment [4], in experiment [5] and in experiment [6] was more than 100 µM each time. Moreover, the TGI in experiment [7] and in [8] was more than 100 µM throughout.

As to `CC1=NN(C(=O)CC(=O)Nc2cccc(Cl)c2)C(=O)C1N=Nc1ccc(S(N)(=O)=O)cc1` (stereo not drawn), the TGI in [1], in [2], in experiment [3], in [4], in experiment [5] and in experiment [6] was more than 100 µM in each case. In addition, the TGI in experiment [9], in experiment [7] and in experiment [8] was more than 100 µM in each case.

Regarding `Cc1nnc([S-])s1.[Au+].c1ccc([PH+](c2ccccc2)c2ccccc2)cc1`, the GI50 is 1.53 µM in experiment [5], 1.6 µM in experiment [9], 1.28 µM in experiment [7] and 1.64 µM in experiment [8]. The TGI in experiment [5] was 2.97 µM; in experiment [9], 2.98 µM; in [7], 2.56 µM; in experiment [8], 2.99 µM.

As to `COC(=O)/C(=N\NC(=O)c1ccccc1O)C(C#N)c1ccc(Cl)cc1` (stereo not drawn), the TGI is more than 100 µM in [1]; more than 100 µM in experiment [2]; more than 100 µM in experiment [3]; 95.8 µM in experiment [4]; more than 100 µM in [5]; more than 100 µM in experiment [6]. In addition, the TGI in experiment [7] was more than 100 µM; in experiment [8] it was 37.3 µM.

Turning to `C/C(=N\NS(=O)(=O)c1ccc(C)cc1)c1ccc[n+]([O-])n1`, the TGI in experiment [1], in experiment [2], in experiment [3], in experiment [4], in experiment [5] and in [6] was more than 100 µM throughout. Further, the TGI in [9], in experiment [7] and in [8] was more than 100 µM in each case.

On to `COc1cc2ccn3c4cc(OC)c(OC)cc4cc3c2cc1OC`, for which the TGI in experiment [1], in experiment [2], in experiment [4], in experiment [6], in experiment [9] and in experiment [7] was more than 100 µM throughout. Moreover, the TGI in experiment [8] is more than 100 µM.

Take `c1ccc2c(c1)CCCc1cc3ccccc3nc1-2`: the TGI in experiment [1], in [2], in [3], in [4], in experiment [5] and in experiment [6] was more than 100 µM throughout. Moreover, the TGI in experiment [9], in experiment [7] and in [8] was more than 100 µM each time.

As for `N#Cc1c2c(c(N=[N+]=[N-])n3c1nc1ccccc13)CCCC2`, the TGI in [1] is 6.1 µM; in [2], 30.9 µM; in [3], 4.38 µM; in experiment [4], 31 µM; in experiment [5], 6.56 µM; in experiment [6], 3.09 µM. Moreover, the TGI turned out to be 7.84 µM in experiment [9] and 4.55 µM in experiment [8].

`O=c1c2ccccc2nc(-c2ccccc2)n1NCC1(O)OCC(O)C(O)C1O` (stereo not drawn): the TGI in [1], in experiment [2], in [3], in [4], in experiment [5] and in experiment [6] was more than 100 µM throughout. Also, the TGI in [9], in experiment [7] and in experiment [8] was more than 100 µM in each case.

`Brc1ccc2c(c1)C1(c3cc(Br)ccc3-2)c2cc(Br)ccc2-c2ccc(Br)cc21`: the TGI in experiment [2], in experiment [3], in experiment [4], in experiment [5], in experiment [6] and in experiment [9] was more than 100 µM throughout. In addition, the TGI in [7] and in [8] was more than 100 µM each time.

Regarding `O=C1c2c(O)cccc2C(C(=O)CCCCC(=O)C2c3cccc(O)c3C(=O)c3c(O)cccc32)c2cccc(O)c21`, the GI50 in [1] is 2.14 µM; in experiment [2], 1.55 µM; in experiment [3], 1.75 µM; in experiment [4], 1.05 µM; in experiment [5], 0.664 µM and 1.37 µM; in experiment [6], 1.53 µM. Further, the GI50 in experiment [9] is 0.529 µM; in experiment [7], 1.62 µM; in [8], 1.11 µM. In addition, the TGI was 5.27 µM and 7.36 µM in experiment [1]; 1.64 µM and 3.68 µM in experiment [2]; 2.6 µM and 5.12 µM in [3]; 1.66 µM and 2.52 µM in experiment [4]; 1.74 µM and 3.7 µM in experiment [5]; 2.16 µM and 5.26 µM in experiment [6]. The TGI was 1.35 µM and 1.89 µM in experiment [9]; 2.48 µM and 5.78 µM in experiment [7]; 1.01 µM and 2.38 µM in experiment [8].

Turning to `Cc1cc(N(CCC#N)S(=O)(=O)c2ccccc2)ccc1C=O`, the TGI in [1], in experiment [2], in experiment [3], in experiment [4], in experiment [5] and in experiment [6] was more than 100 µM throughout. In addition, the TGI in experiment [9], in experiment [7] and in [8] was more than 100 µM each time.

Consider `O=C(CCCCCCCCCCc1ccccc1)c1c(O)cccc1O`, for which the TGI was determined as 48.7 µM in experiment [2]; 38.7 µM in experiment [3]; 42.2 µM in experiment [4]; 60.5 µM in experiment [5]; 38.1 µM in [6]; 41.3 µM in [9]. Also, the TGI turned out to be 36.2 µM in experiment [7] and 38.7 µM in experiment [8].

Take `CC(C)c1ccc(/C=C(\NC(=O)c2ccccc2)c2nc3ccccc3[nH]2)cc1`: the TGI in experiment [1] was more than 100 µM; in experiment [2], 90 µM; in [3], more than 100 µM; in experiment [5] it was more than 100 µM; in experiment [6], 86.9 µM; in experiment [9], more than 100 µM. The TGI in experiment [7] and in experiment [8] was more than 100 µM in each case.

`CC(=O)NC1C(OCc2ccccc2)OC(COC(=O)CCCCCCCCCCNC(=O)c2cccc3c(=O)c4ccccc4[nH]c23)C(O)C1OC(C)C(=O)NC(C)C(=O)NC(CCC(N)=O)C(N)=O` (stereo not drawn): the TGI in experiment [1], in experiment [2], in experiment [3], in experiment [4], in experiment [5] and in experiment [6] was more than 100 µM throughout. The TGI in [9], in experiment [7] and in experiment [8] was more than 100 µM in each case.

For the compound `S=C(Nc1ccccc1)Nc1[nH]c(=S)sc1-c1nc2ccccc2[nH]1`, the TGI in experiment [1] is more than 100 µM; in [2], more than 100 µM; in [3], more than 100 µM; in experiment [4] it was 66.8 µM; in experiment [5], more than 100 µM; in experiment [6], more than 100 µM. Besides, the TGI in experiment [9], in experiment [7] and in experiment [8] was more than 100 µM each time.

With `CC(C)OP(=O)(OC(C)C)C(N(C)C)P(=O)(OC(C)C)OC(C)C.[Cl][Sn]([Cl])([Cl])[c]1ccccc1`, the GI50 in experiment [1] was 14.2 µM; in experiment [2], 3.49 µM; in experiment [3], 3.11 µM; in experiment [4] it was 2.08 µM; in experiment [5], 3.61 µM; in experiment [6] it was 3.16 µM. Moreover, the GI50 in experiment [9] was 17.8 µM; in experiment [8], 4.12 µM. Also, the TGI in [1] is 89.8 µM; in experiment [2] it was 52.5 µM; in [3] it was more than 100 µM; in experiment [4] it was 7.34 µM; in [5], 92.7 µM; in experiment [6], 13.2 µM. In addition, the TGI in experiment [9] and in [8] was more than 100 µM each time.

For `CC1CCC(O)C(C(O)CC2CC(=O)N(C)C(=O)C2)C1` (stereo not drawn), the TGI in experiment [1], in experiment [2], in [4], in experiment [5], in experiment [6] and in experiment [9] was more than 100 µM throughout. For the same compound, the TGI in experiment [7] and in experiment [8] was more than 100 µM in each case.

Regarding `Cc1nnc2n1N=C(CC(=O)c1ccc(O)cc1O)CN2N`, the TGI is more than 100 µM in experiment [1]; more than 100 µM in experiment [2]; 29.7 µM in [3]; more than 100 µM in experiment [4]; more than 100 µM in [5]; more than 100 µM in experiment [9]. Also, the TGI in experiment [7] and in experiment [8] was more than 100 µM each time.

Turning to `O=C1OCC(C(=O)c2cccc(O)c2)C1=O` (stereo not drawn), the TGI in [1], in experiment [2], in [3], in experiment [4], in experiment [5] and in [6] was more than 100 µM each time. Further, the TGI in experiment [9], in experiment [7] and in [8] was more than 100 µM throughout.

With `O=C(O)c1cc(Cl)cc(NC(=O)C(Cl)Cl)c1Cl`, the TGI in [1], in experiment [2], in [3], in experiment [4], in experiment [5] and in experiment [6] was more than 100 µM throughout. The TGI in [9], in [7] and in experiment [8] was more than 100 µM each time.

Take `COC(=O)C(CC=O)C(=O)C(=O)Nc1cccc(C(F)(F)F)c1` (stereo not drawn): the TGI in experiment [2], in experiment [3], in experiment [4], in [5], in [6] and in experiment [9] was more than 100 µM throughout. The TGI in experiment [7] and in experiment [8] was more than 100 µM in each case.

Turning to `CC(=O)[CH-]C(=O)c1ccccc1.CC(=O)[CH-]C(=O)c1ccccc1.[O]=[U+2]=[O]`, the GI50 in [1] is 28.7 µM; in experiment [2] it was 32.8 µM; in experiment [3] it was 35.1 µM; in experiment [4], 23.8 µM; in experiment [5], 55 µM; in experiment [6], 35 µM. The GI50 in [7] was 33.1 µM. For the same compound, the TGI in experiment [1] was 96.9 µM; in experiment [2] it was more than 100 µM; in [3] it was more than 100 µM; in experiment [4], 66.2 µM; in experiment [5], more than 100 µM; in experiment [6], more than 100 µM. Also, in experiment [7], the TGI was more than 100 µM.

In the case of `COC(=O)C12CC(C3CC31)C1CC12` (stereo not drawn), the TGI in [1], in experiment [3], in experiment [4], in [5], in [6] and in experiment [9] was more than 100 µM in each case. Besides, the TGI in [7] and in experiment [8] was more than 100 µM throughout.

For the compound `CC1OC(=O)N(CCCC=C2SCCCS2)C1=O` (stereo not drawn), the TGI in experiment [1], in [2], in [3], in [5], in [6] and in [9] was more than 100 µM each time. Moreover, the TGI in [7] and in experiment [8] was more than 100 µM throughout.

Turning to `COC(=O)/C(C#N)=C1\N=NNN1CCCN1CCOCC1`, the TGI in experiment [1], in experiment [2], in experiment [3], in experiment [5], in [6] and in experiment [9] was more than 100 µM in each case. For the same compound, the TGI in experiment [7] and in experiment [8] was more than 100 µM in each case.

`O=c1[nH]c(=O)n(C2CC(O)C(CO)O2)cc1C#Cc1ccc(C(F)(F)F)cc1` (stereo not drawn): the TGI in [2], in experiment [3], in experiment [4], in [5], in experiment [6] and in [9] was more than 100 µM throughout. Besides, the TGI in experiment [7] and in experiment [8] was more than 100 µM each time.

Turning to `CCOC(=O)CCC1(C(=O)OC)CCCC1=O` (stereo not drawn), the TGI in [1], in experiment [2], in [4], in experiment [5], in [6] and in experiment [9] was more than 100 µM each time. This compound had a TGI in [8] of more than 100 µM.

As for `CCC1OCCN1C(C)C` (stereo not drawn), the TGI in [1] was more than 100 µM; in [2] it was 86.8 µM; in [3], more than 100 µM; in experiment [5] it was more than 100 µM; in [6] it was more than 100 µM; in [9], more than 100 µM. The TGI in [7] and in experiment [8] was more than 100 µM in each case.
